Measurements reported in US7709636B2, “Pyrazole sulfonylurea compound and herbicide” (Nissan Chemical Industries, Ltd., priority 2004, dated 2010).

Key:
Abutilon avicennae [1] = assay: Herbicidal effect test by foliage treatment; assay type: in vivo; conditions: 1.6 g/a; foliage treatment after growth of 14 days; 3 weeks after treatment
Procedure, shortened: (§1)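 Herbicidal effect was rated 3 weeks after a uniform foliar spray of wettable powder diluted in water to a predetermined formulation amount. Plants had been grown 14 days from seed in sterilized diluvial soil in a greenhouse at 25 to 30° C.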

Avena fatua [2] = assay: Herbicidal effect test by foliage treatment; assay type: in vivo; conditions: 1.6 g/a; foliage treatment after growth of 14 days; 3 weeks after treatment
Procedure, shortened: as §1

Setaria viridis [3] = assay: Herbicidal effect test by foliage treatment; assay type: in vivo; conditions: 1.6 g/a; foliage treatment after growth of 14 days; 3 weeks after treatment
Procedure, shortened: as §1

[4] = tested on: Triticum aestivum (wheat); assay: Herbicidal effect test by foliage treatment; assay type: in vivo; conditions: 1.6 g/a; foliage treatment after growth of 14 days; 3 weeks after treatment
Procedure, shortened: as §1

Ambrosia elatior [5] = assay: Herbicidal effect test by foliage treatment; assay type: in vivo; conditions: 1.6 g/a; foliage treatment after growth of 14 days; 3 weeks after treatment
Procedure, shortened: as §1

corn (Zea mays) [6] = assay: Herbicidal effect test by foliage treatment; assay type: in vivo; conditions: 1.6 g/a; foliage treatment after growth of 14 days; 3 weeks after treatment
Procedure, shortened: as §1

Stellaria media [7] = assay: Herbicidal effect test by foliage treatment; assay type: in vivo; conditions: 1.6 g/a; foliage treatment after growth of 14 days; 3 weeks after treatment
Procedure, shortened: as §1

Polygonum blumei [8] = assay: Herbicidal effect test by foliage treatment; assay type: in vivo; conditions: 1.6 g/a; foliage treatment after growth of 14 days; 3 weeks after treatment
Procedure, shortened: as §1

soybean (Glycine max) [9] = assay: Herbicidal effect test by foliage treatment; assay type: in vivo; conditions: 1.6 g/a; foliage treatment after growth of 14 days; 3 weeks after treatment
Procedure, shortened: as §1

Amaranthus retroflexus [10] = assay: Herbicidal effect test by foliage treatment; assay type: in vivo; conditions: 1.6 g/a; foliage treatment after growth of 14 days; 3 weeks after treatment
Procedure, shortened: as §1

Black-grass [11] = assay: Herbicidal effect test by foliage treatment; assay type: in vivo; conditions: 1.6 g/a; foliage treatment after growth of 14 days; 3 weeks after treatment
Procedure, shortened: as §1

Digitaria adscendes [12] = assay: Herbicidal effect test by foliage treatment; assay type: in vivo; conditions: 1.6 g/a; foliage treatment after growth of 14 days; 3 weeks after treatment
Procedure, shortened: as §1

Chenopodium album [13] = assay: Herbicidal effect test by foliage treatment; assay type: in vivo; conditions: 1.6 g/a; foliage treatment after growth of 14 days; 3 weeks after treatment
Procedure, shortened: as §1

Echinochloa crus-galli [14] = assay: Herbicidal effect test by foliage treatment; assay type: in vivo; conditions: 1.6 g/a; foliage treatment after growth of 14 days; 3 weeks after treatment
Procedure, shortened: as §1

Beta vulgaris (beet) [15] = assay: Herbicidal effect test by foliage treatment; assay type: in vivo; conditions: 1.6 g/a; foliage treatment after growth of 14 days; 3 weeks after treatment
Procedure, shortened: as §1

direct sown rice [16] = assay: Herbicidal effect test by foliage treatment; assay type: in vivo, Oryza sativa; conditions: 1.6 g/a; foliage treatment after growth of 14 days; 3 weeks after treatment
Procedure, shortened: as §1

Scirpus juncoides [17] = assay: Herbicidal effect test in submerged condition by treatment during weed-growth stage (1); assay type: in vivo; conditions: 0.64 g/a, treated at 1st to 2nd leaf stage, 3 weeks after treatment
Procedure, shortened: (§2)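 Paddy-soil pots flooded to 4 cm water depth were sown and grown in a greenhouse at 25 to 30° C until weeds reached 1st to 2nd leaf stage. A wettable powder diluted in water to a predetermined formulation amount was applied to the water surface. Herbicidal effect was scored 3 weeks after treatment against set criteria.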

Echinochloa crus-galli [18] = assay: as above; assay type: in vivo; conditions: 0.64 g/a, treated at 1st to 2nd leaf stage, 3 weeks after treatment
Procedure, shortened: as §2

Monochoria vaginalis [19] = assay: as above; assay type: in vivo; conditions: 0.64 g/a, treated at 1st to 2nd leaf stage, 3 weeks after treatment
Procedure, shortened: as §2

direct sown rice [20] = assay: Herbicidal effect test by soil treatment; assay type: in vivo, Oryza sativa; conditions: 1.6 g/a, 3 weeks after treatment
Procedure, shortened: (§3)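 Read-out is a visual herbicidal-effect rating taken 3 weeks post-treatment. Plants grew from seed sown in sterilized diluvial soil, covered with about 1.5 cm soil, then surface-sprayed with water-diluted wettable powder at a predetermined formulation amount.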

Abutilon avicennae [21] = assay: Herbicidal effect test by soil treatment; assay type: in vivo; conditions: 1.6 g/a, 3 weeks after treatment
Procedure, shortened: as §3

Avena fatua [22] = assay: Herbicidal effect test by soil treatment; assay type: in vivo; conditions: 1.6 g/a, 3 weeks after treatment
Procedure, shortened: as §3

Setaria viridis [23] = assay: Herbicidal effect test by soil treatment; assay type: in vivo; conditions: 1.6 g/a, 3 weeks after treatment
Procedure, shortened: as §3

[24] = tested on: Triticum aestivum (wheat); assay: Herbicidal effect test by soil treatment; assay type: in vivo; conditions: 1.6 g/a, 3 weeks after treatment
Procedure, shortened: as §3

Ambrosia elatior [25] = assay: Herbicidal effect test by soil treatment; assay type: in vivo; conditions: 1.6 g/a, 3 weeks after treatment
Procedure, shortened: as §3

corn (Zea mays) [26] = assay: Herbicidal effect test by soil treatment; assay type: in vivo; conditions: 1.6 g/a, 3 weeks after treatment
Procedure, shortened: as §3

Stellaria media [27] = assay: Herbicidal effect test by soil treatment; assay type: in vivo; conditions: 1.6 g/a, 3 weeks after treatment
Procedure, shortened: as §3

Polygonum blumei [28] = assay: Herbicidal effect test by soil treatment; assay type: in vivo; conditions: 1.6 g/a, 3 weeks after treatment
Procedure, shortened: as §3

soybean (Glycine max) [29] = assay: Herbicidal effect test by soil treatment; assay type: in vivo; conditions: 1.6 g/a, 3 weeks after treatment
Procedure, shortened: as §3

Amaranthus retroflexus [30] = assay: Herbicidal effect test by soil treatment; assay type: in vivo; conditions: 1.6 g/a, 3 weeks after treatment
Procedure, shortened: as §3

Black-grass [31] = assay: Herbicidal effect test by soil treatment; assay type: in vivo; conditions: 1.6 g/a, 3 weeks after treatment
Procedure, shortened: as §3

Digitaria adscendes [32] = assay: Herbicidal effect test by soil treatment; assay type: in vivo; conditions: 1.6 g/a, 3 weeks after treatment
Procedure, shortened: as §3

Chenopodium album [33] = assay: Herbicidal effect test by soil treatment; assay type: in vivo; conditions: 1.6 g/a, 3 weeks after treatment
Procedure, shortened: as §3

Echinochloa crus-galli [34] = assay: Herbicidal effect test by soil treatment; assay type: in vivo; conditions: 1.6 g/a, 3 weeks after treatment
Procedure, shortened: as §3

Beta vulgaris (beet) [35] = assay: Herbicidal effect test by soil treatment; assay type: in vivo; conditions: 1.6 g/a, 3 weeks after treatment
Procedure, shortened: as §3

Scirpus juncoides [36] = assay: Herbicidal effect test in submerged condition by treatment before weed-generation (1); assay type: in vivo; conditions: 0.64 g/a, water surface treated on day of sowing, 3 weeks after treatment
Procedure, shortened: (§4)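 Scores run 0 (≤5% effect) to 5 (≥90%, near-complete death), assessed visually 3 weeks post-treatment. Submerged paddy soil, water 4 cm deep, seeds sown and rice at 2.5th leaf stage transplanted; formulation diluted and poured onto water surface at sowing; greenhouse 25 to 30° C.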

Echinochloa crus-galli [37] = assay: as above; assay type: in vivo; conditions: 0.64 g/a, water surface treated on day of sowing, 3 weeks after treatment
Procedure, shortened: as §4

Monochoria vaginalis [38] = assay: as above; assay type: in vivo; conditions: 0.64 g/a, water surface treated on day of sowing, 3 weeks after treatment
Procedure, shortened: as §4

Compound | herbicidal effect, H: Abutilon avicennae (Abutilon avicennae [1]) | herbicidal effect, F: Avena fatua (Avena fatua [2]) | herbicidal effect, E: Setaria viridis (Setaria viridis [3]) | herbicidal effect, e: Triticum aestivum (wheat) [4] | herbicidal effect, I: Ambrosia elatior (Ambrosia elatior [5]) | herbicidal effect, b: corn (Zea mays) (corn (Zea mays) [6]) | herbicidal effect, M: Stellaria media (Stellaria media [7]) | herbicidal effect, L: Polygonum blumei (Polygonum blumei [8]) | herbicidal effect, c: soybean (Glycine max) (soybean (Glycine max) [9]) | herbicidal effect, J: Amaranthus retroflexus (Amaranthus retroflexus [10]) | herbicidal effect, G: Black-grass (Black-grass [11]) | herbicidal effect, D: Digitaria adscendes (Digitaria adscendes [12]) | herbicidal effect, K: Chenopodium album (Chenopodium album [13]) | herbicidal effect, A: Echinochloa crus-galli (Echinochloa crus-galli [14]) | herbicidal effect, f: Beta vulgaris (beet) (Beta vulgaris (beet) [15]) | herbicidal effect, d: direct sown rice (direct sown rice [16]) | herbicidal effect, B: Scirpus juncoides (Scirpus juncoides [17]) | herbicidal effect, A: Echinochloa crus-galli (Echinochloa crus-galli [18]) | herbicidal effect, C: Monochoria vaginalis (Monochoria vaginalis [19]) | herbicidal effect, d: direct sown rice (direct sown rice [20]) | other results
COc1cc(OC)nc(NC(=O)NS(=O)(=O)c2c(C3=NOCC(C)(CI)O3)c(Cl)nn2C)n1 (stereo not shown) [Compound 4, N-((4,6-dimethoxypyrimidin-2-yl)aminocarbonyl)-3-chloro-4-(5-iodomethyl-5-methyl-5H,6H-1,4,2-dioxadin-3-yl)-1-methylpyrazole-5-sulfonamide] | 4 (Herbicidal rate 70% or more and less than 90%) | 0 (Herbicidal rate 5% or less (little effect)) | 0 (Herbicidal rate 5% or less (little effect)) | 0 (Herbicidal rate 5% or less (little effect)) | 3 (Herbicidal rate 40% or more and less than 70%) | 0 (Herbicidal rate 5% or less (little effect)) | 2 (Herbicidal rate 20% or more and less than 40%) | 3 (Herbicidal rate 40% or more and less than 70%) | 3 (Herbicidal rate 40% or more and less than 70%) | 2 (Herbicidal rate 20% or more and less than 40%) | 0 (Herbicidal rate 5% or less (little effect)) | 0 (Herbicidal rate 5% or less (little effect)) | 4 (Herbicidal rate 70% or more and less than 90%) | 0 (Herbicidal rate 5% or less (little effect)) | 1 (Herbicidal rate 5% or more and less than 20%) | 0 (Herbicidal rate 5% or less (little effect)) | 3 (Herbicidal rate 40% or more and less than 70%) | 0 (Herbicidal rate 5% or less (little effect)) | 3 (Herbicidal rate 40% or more and less than 70%) | 0 (Herbicidal rate 5% or less (little effect)) | herbicidal effect, H: Abutilon avicennae (Abutilon avicennae [21]): 0 (Herbicidal rate 5% or less (little effect)); herbicidal effect, F: Avena fatua (Avena fatua [22]): 0 (Herbicidal rate 5% or less (little effect)); herbicidal effect, E: Setaria viridis (Setaria viridis [23]): 0 (Herbicidal rate 5% or less (little effect)); herbicidal effect, e: Triticum aestivum (wheat) [24]: 0 (Herbicidal rate 5% or less (little effect)); herbicidal effect, I: Ambrosia elatior (Ambrosia elatior [25]): 2 (Herbicidal rate 20% or more and less than 40%); herbicidal effect, b: corn (Zea mays) (corn (Zea mays) [26]): 0 (Herbicidal rate 5% or less (little effect)); herbicidal effect, M: Stellaria media (Stellaria media [27]): 1 (Herbicidal rate 5% or more and less than 20%); herbicidal effect, L: Polygonum blumei (Polygonum blumei [28]): 0 (Herbicidal rate 5% or less (little effect)); herbicidal effect, c: soybean (Glycine max) (soybean (Glycine max) [29]): 0 (Herbicidal rate 5% or less (little effect)); herbicidal effect, J: Amaranthus retroflexus (Amaranthus retroflexus [30]): 0 (Herbicidal rate 5% or less (little effect)); herbicidal effect, G: Black-grass (Black-grass [31]): 0 (Herbicidal rate 5% or less (little effect)); herbicidal effect, D: Digitaria adscendes (Digitaria adscendes [32]): 0 (Herbicidal rate 5% or less (little effect)); herbicidal effect, K: Chenopodium album (Chenopodium album [33]): 1 (Herbicidal rate 5% or more and less than 20%); herbicidal effect, A: Echinochloa crus-galli (Echinochloa crus-galli [34]): 0 (Herbicidal rate 5% or less (little effect)); herbicidal effect, f: Beta vulgaris (beet) (Beta vulgaris (beet) [35]): 0 (Herbicidal rate 5% or less (little effect))
COc1cc(OC)nc(NC(=O)NS(=O)(=O)c2c(C3=NOCC(CI)O3)c(C)nn2C)n1 (stereo not shown) [Compound 6] | 5 (Herbicidal rate 90% or more (almost complete death)) | 3 (Herbicidal rate 40% or more and less than 70%) | 5 (Herbicidal rate 90% or more (almost complete death)) | 4 (Herbicidal rate 70% or more and less than 90%) | 5 (Herbicidal rate 90% or more (almost complete death)) | 4 (Herbicidal rate 70% or more and less than 90%) | 5 (Herbicidal rate 90% or more (almost complete death)) | 5 (Herbicidal rate 90% or more (almost complete death)) | 4 (Herbicidal rate 70% or more and less than 90%) | 4 (Herbicidal rate 70% or more and less than 90%) | 5 (Herbicidal rate 90% or more (almost complete death)) | 5 (Herbicidal rate 90% or more (almost complete death)) | 5 (Herbicidal rate 90% or more (almost complete death)) | 5 (Herbicidal rate 90% or more (almost complete death)) | 5 (Herbicidal rate 90% or more (almost complete death)) | 4 (Herbicidal rate 70% or more and less than 90%) | 5 (Herbicidal rate 90% or more (almost complete death)) | 5 (Herbicidal rate 90% or more (almost complete death)) | 5 (Herbicidal rate 90% or more (almost complete death)) | 4 (Herbicidal rate 70% or more and less than 90%) | herbicidal effect, B: Scirpus juncoides (Scirpus juncoides [36]): 5 (Herbicidal rate 90% or more (almost complete death)); herbicidal effect, A: Echinochloa crus-galli (Echinochloa crus-galli [37]): 5 (Herbicidal rate 90% or more (almost complete death)); herbicidal effect, C: Monochoria vaginalis (Monochoria vaginalis [38]): 5 (Herbicidal rate 90% or more (almost complete death)); herbicidal effect, H: Abutilon avicennae (Abutilon avicennae [21]): 3 (Herbicidal rate 40% or more and less than 70%); herbicidal effect, F: Avena fatua (Avena fatua [22]): 0 (Herbicidal rate 5% or less (little effect)); herbicidal effect, E: Setaria viridis (Setaria viridis [23]): 3 (Herbicidal rate 40% or more and less than 70%); herbicidal effect, e: Triticum aestivum (wheat) [24]: 4 (Herbicidal rate 70% or more and less than 90%); herbicidal effect, I: Ambrosia elatior (Ambrosia elatior [25]): 5 (Herbicidal rate 90% or more (almost complete death)); herbicidal effect, b: corn (Zea mays) (corn (Zea mays) [26]): 4 (Herbicidal rate 70% or more and less than 90%); herbicidal effect, M: Stellaria media (Stellaria media [27]): 5 (Herbicidal rate 90% or more (almost complete death)); herbicidal effect, L: Polygonum blumei (Polygonum blumei [28]): 5 (Herbicidal rate 90% or more (almost complete death)); herbicidal effect, c: soybean (Glycine max) (soybean (Glycine max) [29]): 3 (Herbicidal rate 40% or more and less than 70%); herbicidal effect, J: Amaranthus retroflexus (Amaranthus retroflexus [30]): 4 (Herbicidal rate 70% or more and less than 90%); herbicidal effect, G: Black-grass (Black-grass [31]): 5 (Herbicidal rate 90% or more (almost complete death)); herbicidal effect, D: Digitaria adscendes (Digitaria adscendes [32]): 4 (Herbicidal rate 70% or more and less than 90%); herbicidal effect, K: Chenopodium album (Chenopodium album [33]): 5 (Herbicidal rate 90% or more (almost complete death)); herbicidal effect, A: Echinochloa crus-galli (Echinochloa crus-galli [34]): 4 (Herbicidal rate 70% or more and less than 90%); herbicidal effect, f: Beta vulgaris (beet) (Beta vulgaris (beet) [35]): 4 (Herbicidal rate 70% or more and less than 90%)
